{
  "source": "patent US20260256794A1",
  "about": "“Oral Dynamine Formulations and Methods Therefor” (Ortho-Nutra, LLC, priority 2023, published 2026)",
  "key": {"subjects [1]": {"system": "subjects", "assay": "Stroop-Accuracy", "format": "in vivo, human", "protocol": "(§1) The inventors have discovered various compositions and methods of improving various indices of neurological and neuroenergetic functions by administering 100 mg (once daily) dosages of DYNAMINE™ (dosage between 1.0 and 1.4 mg/kg) as described in the following:\n(§2) All neuroenergetic tests as listed below were performed and data were collected after 0 and 4 days of assigned supplements (with acute effects also measured at day 4 over 180 minutes):\nStroop Color Matching Test (Total Score, Accuracy %, Average Score): Day 0: Two blocks of three tests were completed. Each block of three tests was separated by 10 minutes. The median of each block was taken and then those two scores were averaged. This value was used in all statistical analysis. Day 4: Three tests were completed at four time points: after 0, 60, 120, and 180 minutes of taking dose #4. The median of the three tests at each time point was used in all statistical analysis.\nThe Stroop Color and Word Test (SCWT, or Stroop test) is a neuropsychological test extensively used to assess the ability to inhibit cognitive interference that occurs when the processing of a specific stimulus feature impedes the simultaneous processing of a second stimulus attribute, well-known as the Stroop effect (see e.g., Front Psychol. 2017; 8:557). Here, subjects were required to read three different tables as fast as possible. Two of them represent the “congruous condition” in which participants are required to read names of colors (‘color-words’) printed in black ink (W) and name different color patches (C). However, in the third table, the color-word (CW) condition, color-words are printed in an inconsistent color ink (e.g., the word “red” is printed in green ink). In this incongruent condition, participants are required to name the color of the ink instead of reading the word. In other words, the participants are required to perform a less automated task (i.e., naming ink color) while inhibiting the interference arising from a more automated task (i.e., reading the word). This difficulty in inhibiting the more automated process is called the Stroop effect. The Stroop test is predominantly used to measure the ability to inhibit cognitive interference. However, some sources also report its application to measure other cognitive functions such as attention, processing speed, cognitive flexibility, and working memory.\nStroop-Accuracy: The results for this test were based on an accuracy score comparing performance between Day 0 and Day 4, with Day 4 including tests over a duration of 180 minutes. Results were collected as noted above and Table 43 provides exemplary results for Day 0 versus Day 4 ratings, whereas Table 44 provides exemplary acute results measured at Day 4 over a duration of 180 minutes."}, "subjects [2]": {"system": "subjects", "assay": "VAS-Ability to focus", "format": "in vivo, human", "parameters": "VAS-Ability to focus rating, Mean / VAS-Ability to focus changes from baseline, Mean Difference ± SE / VAS-Ability to focus area under the curve, Mean Difference ± SE / VAS-Ability to focus area under the curve, Mean: scale not given here", "protocol": "as §1, §2\nAll VAS Measurement (Energy, Sustained Energy, Mental Stamina, Ability to Focus, Ability to Concentrate, Motivation to Accomplish Difficult Tasks, Drive, Vigor, Level of Positive Outlook, Mood, Feelings of Well-Being, Tolerate Stress); Day 0: Two tests were completed. The average of both scores was computed and this value was used in all statistical analysis. Day 4 (0 minutes after ingesting dose #4): Two tests were completed. The average of both scores was computed and this value was used in all statistical analysis. Day 4 (60, 120, and 180 minutes after ingesting dose #4): One test was completed at each time point.\nNeuroenergic parameters are inherently subjective, nevertheless significant in human behavior and well-being. To allow for a standardization among different subjects, the following experiments were performed using a visual analog scale using anchor statements (lowest possible/highest possible) in which subjects were asked to rate their subjective experience with respect to the specific neuroenergic parameters tested.\nVAS-Ability to focus: In this subjective test, subjects were asked to rate their personal level of energy on a VAS scale using the prompt of “My ability to focus right now is . . . ” (with rating lowest possible to highest possible)”. Results were collected as noted above and Table 13 provides exemplary results for Day 0 versus Day 4 ratings, whereas Table 14 provides exemplary acute results measured at Day 4 over a duration of 180 minutes."}, "subjects [3]": {"system": "subjects", "assay": "Hemodynamics: systolic blood pressure", "format": "in vivo, human", "settings": "for Systolic blood pressure changes from baseline, Mean Difference ± SE / Systolic blood pressure changes from baseline, effect size d: between groups (placebo)", "protocol": "as §1\nHemodynamics Systolic Blood Pressure, Diastolic Blood Pressure, Heart Rate were taken Pre and Post Stroop Test on Day 0; Pre and Post Stroop Test after 4 Days of Supplementation 0, 60, 120, and 180 minutes after ingestion of 4th dose.\nFor hemodynamic parameters, systolic blood pressure, diastolic blood pressure, and heart rate were taken pre- and post-Stroop Test on Day 0, and pre- and post-Stroop Test after 4 Days of Supplementation 0, 60, 120, and 180 minutes after ingestion of 4th dose."}, "[4]": {"settings": "cited from earlier work"}, "[5]": {"settings": "100 mg once daily, Day 4, 0 min after dose #4"}, "[6]": {"settings": "100 mg once daily, Day 4, 60 min after dose #4"}, "[7]": {"settings": "100 mg once daily, Day 4, 120 min after dose #4"}, "[8]": {"settings": "100 mg once daily, Day 4, 180 min after dose #4"}, "[9]": {"settings": "100 mg once daily, Day 4, 0-180 min, vs Group A (placebo)"}, "[10]": {"settings": "100 mg once daily, Day 4, 60 min-0 min, vs Group A (placebo)"}, "[11]": {"settings": "100 mg once daily, Day 4, 120 min-0 min, vs Group A (placebo)"}, "[12]": {"settings": "100 mg once daily, Day 4, 180 min-0 min, vs Group A (placebo)"}, "[13]": {"settings": "100 mg once daily, Day 4, 60 min-0 min"}, "[14]": {"settings": "100 mg once daily, Day 4, 120 min-0 min"}, "[15]": {"settings": "100 mg once daily, Day 4, 180 min-0 min"}},
  "data": [
    {"smiles": "COc1nc2c(c(=O)n1C)n(C)c(=O)n2C", "note": "[methylliberine, 2-methoxy-1,7,9-trimethylpurine-6,8-dione]", "values": [
      {"measurement": "Stroop accuracy, Mean", "setting": "subjects [1]; [5]", "result": 99.2, "unit": "%"},
      {"measurement": "Stroop accuracy, Mean", "setting": "subjects [1]; [6]", "result": 99.1, "unit": "%"},
      {"measurement": "Stroop accuracy, Mean", "setting": "subjects [1]; [7]", "result": 99.0, "unit": "%"},
      {"measurement": "Stroop accuracy, Mean", "setting": "subjects [1]; [8]", "result": 98.9, "unit": "%"},
      {"measurement": "Stroop accuracy, Mean", "setting": "subjects [1]; Day 0 (before supplementation)", "result": 99.2, "unit": "%"},
      {"measurement": "VAS-Ability to focus area under the curve, Mean", "setting": "subjects [2]; 100 mg once daily, Day 4, 0-180 min", "result": 1155},
      {"measurement": "VAS-Ability to focus area under the curve, Mean Difference ± SE", "setting": "subjects [2]; [9]", "result": "55.3 ± 40.9"},
      {"measurement": "VAS-Ability to focus area under the curve, effect size d", "setting": "subjects [2]; [9]", "result": 0.17},
      {"measurement": "VAS-Ability to focus rating, Mean", "setting": "subjects [2]; [5]", "result": 6.0},
      {"measurement": "VAS-Ability to focus changes from baseline, Mean Difference ± SE", "setting": "subjects [2]; [10]", "result": "0.35 ± 0.30"},
      {"measurement": "VAS-Ability to focus changes from baseline, effect size d", "setting": "subjects [2]; [10]", "result": 0.34},
      {"measurement": "VAS-Ability to focus rating, Mean", "setting": "subjects [2]; [6]", "result": 6.4},
      {"measurement": "VAS-Ability to focus changes from baseline, Mean Difference ± SE", "setting": "subjects [2]; [11]", "result": "0.20 ± 0.26"},
      {"measurement": "VAS-Ability to focus changes from baseline, effect size d", "setting": "subjects [2]; [11]", "result": 0.20},
      {"measurement": "VAS-Ability to focus rating, Mean", "setting": "subjects [2]; [7]", "result": 6.5},
      {"measurement": "VAS-Ability to focus changes from baseline, Mean Difference ± SE", "setting": "subjects [2]; [12]", "result": "0.44 ± 0.24"},
      {"measurement": "VAS-Ability to focus changes from baseline, effect size d", "setting": "subjects [2]; [12]", "result": 0.38},
      {"measurement": "VAS-Ability to focus rating, Mean", "setting": "subjects [2]; [8]", "result": 6.7},
      {"measurement": "VAS-Ability to focus rating, Mean", "setting": "subjects [2]; Day 0 (before supplementation)", "result": 5.9},
      {"measurement": "Systolic blood pressure, Mean", "setting": "subjects [3]; 100 mg once daily, Day 4, 0 min after 4th dose", "result": 121.4, "unit": "mm Hg"},
      {"measurement": "Systolic blood pressure changes from baseline, Mean Difference ± SE", "setting": "subjects [3]; [13]", "result": "1.16 ± 2.57", "unit": "mm Hg"},
      {"measurement": "Systolic blood pressure changes from baseline, effect size d", "setting": "subjects [3]; [13]", "result": "−0.12"},
      {"measurement": "Systolic blood pressure, Mean", "setting": "subjects [3]; 100 mg once daily, Day 4, 60 min after 4th dose", "result": 117.9, "unit": "mm Hg"},
      {"measurement": "Systolic blood pressure changes from baseline, Mean Difference ± SE", "setting": "subjects [3]; [14]", "result": "−0.60 ± 2.22", "unit": "mm Hg"},
      {"measurement": "Systolic blood pressure changes from baseline, effect size d", "setting": "subjects [3]; [14]", "result": 0.06},
      {"measurement": "Systolic blood pressure, Mean", "setting": "subjects [3]; 100 mg once daily, Day 4, 120 min after 4th dose", "result": 120.6, "unit": "mm Hg"},
      {"measurement": "Systolic blood pressure changes from baseline, Mean Difference ± SE", "setting": "subjects [3]; [15]", "result": "2.40 ± 2.25", "unit": "mm Hg"},
      {"measurement": "Systolic blood pressure changes from baseline, effect size d", "setting": "subjects [3]; [15]", "result": "−0.27"},
      {"measurement": "Systolic blood pressure, Mean", "setting": "subjects [3]; 100 mg once daily, Day 4, 180 min after 4th dose", "result": 120.0, "unit": "mm Hg"},
      {"measurement": "Systolic blood pressure, Mean", "setting": "subjects [3]; Day 0 (before supplementation)", "result": 118.6, "unit": "mm Hg"},
      {"measurement": "effect on pharmacokinetics of caffeine", "setting": "[4]; methylliberine 100 mg administered in combination with caffeine 150 mg", "result": "will alter pharmacokinetic effects of caffeine"},
      {"measurement": "half-life", "setting": "[4]; oral, 25 mg and 100 mg, healthy subjects", "result": "1 to 1.4", "unit": "h"}
    ]}
  ]
}
